Assay results published in US6635622B2, “Glycolipid derivative” (Kotobuki Pharmaceutical Co., Ltd., priority 2000, dated 2003).

Key:
[1] = tested on: pancreatic lymphocyte of mouse; test: Lymphocyte mixed culture reaction (3H-thymidine uptake, DNA synthesis); format: cell-based, BALB/C mouse; conditions: concentration 1 ng/mL; cultured 3 days, 3H-TdR uptake 6 hours
Experimental: Experiment 1: Lymphocyte mixed culture reaction.
The pancreatic cells of BALB/C mouse were regulated to a concentration of 2×10^6 cells/ml with a culture medium of 10% FCS RPMI 1640, respectively. These cells (100 ul/well) and a sample (10 ul/well) were plated in a 96 well round-bottomed plate and cultured for 3 days under the condition of 37° C. and 5% CO2. Then, 3H-thymidine (3H-TdR) was added in a dose of 0.5 uCi/well. After 6 hours, the cells were harvested and subjected to the measurement of the uptake of 3H-TdR by a liquid scintillation counter. Thus, the DNA synthesis of pancreatic lymphocyte of mouse […].

B16 mouse melanoma cells = test: Tumor metastasis inhibitory activity against B16 mouse melanoma (lung nodules); format: in vivo, C57BL/6 mouse; conditions: p.o., lung surface nodules 14 days after B16 injection, vs control

| Compound | Increase of DNA synthesis (%) [1] | Inhibition of metastasis (%) (B16 mouse melanoma cells; dose 0.001 mg/kg) | Inhibition of metastasis (%) (B16 mouse melanoma cells; dose 1 mg/kg) |
| --- | --- | --- | --- |
| CCCCCCCCCCCCCCCCCCCCCCCCCC(=O)NC(CC[C@H]1OC(CO)[C@H](O)C(O)C1O)C(O)C(O)CCCCCCCCCCCCCC (stereo partly drawn) [Compound 1, (3′S,4′S,5′R)-3′-N-Hexacosanoylamino-4′,5′-dihydroxy-nonadecane-α-C-D-galactopyranoside] | 54.6% | 65.3% | – |
| CCCCCCCCCCCCCCCCCCCCCCCCCC(=O)NC(CS[C@H]1OC(CO)[C@H](O)C(O)C1O)C(O)C(O)CCCCCCCCCCCCCC (stereo partly drawn) [Compound 8, (2′S,3′S,4′R)-3′,4′-Dihydroxy-2′-N-hexacosanoylamino-octadecane-1′-thio-yl-α-C-D-galactopyranoside] | 35.4% | – | 80.8% |
